Results from ChEMBL document CHEMBL5726287, “Biaryl acetamide compounds and methods of use thereof” (2017).

Molecular target: Mast/stem cell growth factor receptor Kit (Homo sapiens, UniProt P10721)
Test: Competition Binding Assay: Competition binding assays used herein were developed, validated and performed as described in Fabian et al., Nature Biotechnology 2005, 23, 329-336. Kinases were produced as fusions to T7 phage (See, Fabian et al. or WO04/015142) or alternatively, the kinases were expressed in HEK-293 cells and subsequently tagged with DNA for PCR detection (See, WO08/005,310). […] The liganded beads were blocked with excess biotin and washed with blocking buffer (SeaBlock (Pierce), 1% BSA, 0.05% Tween 20, 1 mM DTT) to remove unbound ligand and to reduce non-specific binding. […] Test compounds were prepared as 100× stocks in DMSO and diluted into the aqueous environment. Kds were determined using an eleven point threefold serial dilutions. DMSO or control compounds were was added to control assays lacking a test compound.
Assay type: cell-based

Chain of Mast/stem cell growth factor receptor Kit (P10721 whole entry, the tested form may be a part): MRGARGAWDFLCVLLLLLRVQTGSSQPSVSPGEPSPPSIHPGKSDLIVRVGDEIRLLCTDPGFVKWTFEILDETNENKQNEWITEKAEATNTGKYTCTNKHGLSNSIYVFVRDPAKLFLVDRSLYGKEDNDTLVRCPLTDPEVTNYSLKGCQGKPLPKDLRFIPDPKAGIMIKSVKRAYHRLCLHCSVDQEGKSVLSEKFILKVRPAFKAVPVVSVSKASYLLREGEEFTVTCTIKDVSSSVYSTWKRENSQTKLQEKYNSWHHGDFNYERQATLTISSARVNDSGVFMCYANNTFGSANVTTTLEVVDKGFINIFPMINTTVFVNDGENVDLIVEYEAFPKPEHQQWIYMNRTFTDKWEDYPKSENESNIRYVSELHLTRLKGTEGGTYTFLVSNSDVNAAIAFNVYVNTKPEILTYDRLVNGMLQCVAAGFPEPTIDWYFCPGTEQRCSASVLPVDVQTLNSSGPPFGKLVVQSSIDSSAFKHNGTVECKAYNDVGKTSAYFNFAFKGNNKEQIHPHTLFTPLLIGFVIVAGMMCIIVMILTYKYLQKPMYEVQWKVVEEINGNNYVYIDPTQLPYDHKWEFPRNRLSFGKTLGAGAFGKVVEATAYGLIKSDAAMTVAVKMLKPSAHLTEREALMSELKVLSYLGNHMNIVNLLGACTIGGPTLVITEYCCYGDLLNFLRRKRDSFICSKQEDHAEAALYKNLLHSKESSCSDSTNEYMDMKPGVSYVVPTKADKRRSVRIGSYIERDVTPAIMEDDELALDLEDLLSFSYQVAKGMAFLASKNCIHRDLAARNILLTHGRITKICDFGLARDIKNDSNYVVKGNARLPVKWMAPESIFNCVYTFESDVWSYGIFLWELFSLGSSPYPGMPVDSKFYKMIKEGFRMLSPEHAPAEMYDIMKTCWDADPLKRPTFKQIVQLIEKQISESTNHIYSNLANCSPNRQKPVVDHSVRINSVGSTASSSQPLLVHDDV

| Kd [nM] | Structure (SMILES) |
| --- | --- |
| < 5 | COc1cc2ncc(-c3ccc(CC(=O)Nc4cc(C5(C(F)(F)F)CC5)on4)cc3)nc2cc1OC |
| < 5 | COc1cc2nc(-c3ccc(CC(=O)Nc4cc(C5(C)CC5)no4)c(F)c3)cnc2cc1OCCN1CCOCC1 |
| < 5 | COc1cc2nc(-c3ccc(CC(=O)Nc4cc(C(C)(C)C(F)(F)F)nn4C)c(F)c3)cnc2cc1OCCN1CCOCC1 |
